From US8252790B2, “Pyrazole-3-carboxamide derivative having 5-HT2B receptor antagonist activity” (Raqualia Pharma Inc., priority 2008, dated 2012) come the findings set out here.

In the assay the test system is TNBS induced IBS model. Description: Colonic distension study in TNBS induced rat IBS model (pain threshold). Conditions: male SD rats, TNBS 50 mg/kg, 7 days after surgery; 10 mg/kg p.o.; FIG. 1. Type of assay: in vivo. The method, then:
[Evaluation of Therapeutic Effects on IBS in the Rat]
The pharmacological effects of the test compounds in this invention was evaluated by measuring the improvement effect against lowering of the pain threshold at colon extension stimulation in TNBS induced IBS model.
For details, please refer to the literature, Katsuyo Ohashi at al., Pharmacology, 81(2): 144-150 (2008).
The median incision was conducted under anesthesia in animals, male SD rats, 240-270 g. TNBS solution (50 mg/kg, 30% methanol) was treated at the beginning of the colon in the rats. After the treatment, the cecum is put back into the abdominal cavity. The muscle wall is then sutured. After operation the animals were housed in the normal environment, and were used for the pharmacological evaluation after 7 days from the surgery. The colon extension stimulation was used for the evaluation of the compounds, Diop L. et al., J Pharmacol Exp Ther. 302(3): 1013-22 (2002). The balloon (5 cm in length) is inserted through the anus and kept in position (tip of balloon is 5 cm from the anus). Then the balloon was progressively inflated by step of 5 mm Hg, from 0 to 70 mm Hg by using Barostat (Barostat DISTENDER II R, G & J, CANADA). The pain threshold was evaluated the pressure that corresponded to produced the first abdominal contraction (abdominal cramp: Wesselmann U et al., (1998) Neurosci Lett 246: 73-76). […]

Turning to `Cn1nc(C(=O)NCCN2CCOCC2)cc1-c1cc2cccnc2[nH]1` [Example compound 24, 1-methyl-N-[2-(morpholin-4-yl)ethyl]-5-{1H-pyrrolo[2,3-b]pyridin-2-yl}-1H-pyrazole-3-carboxamide], the “improvement effect against lowering of the pain threshold at colon extension stimulation” value is on record as “improvement effects against lowering of the pain threshold”.
